Reference: patent US10328077B2 (CELGENE CORPORATION, priority 2016, dated 2019)
Where two headings read alike, the source gives them in different places.

Tests used:
[1] = tested on: LU2514 SCLC patient-derived xenograft; experiment: LU2514 HuPrime SCLC PDX model; type: in vivo, mice
Protocol: Tumor growth inhibition analysis was performed on Day 28 post treatment, the last day of dosing.

LXFS 1129 SCLC PDX model = experiment: LXFS 1129 SCLC PDX model; design: species or system mice; details: female, NMRI-Foxnlnu, mouse, in vivo, oral, read-out: AUC0-24
[2] = tested on: LXFS 1129 SCLC patient-derived xenograft; experiment: LXFS 1129 SCLC PDX model; design: species or system mice; details: mouse, in vivo
[3] = tested on: LXFS 2156 SCLC patient-derived xenograft; experiment: LXFS 2156 SCLC PDX model; type: in vivo, mice; details: 5 mg base/kg oral QD×23
[4] = tested on: LU2527 lung NEC patient-derived xenograft; type: in vivo
[5] = tested on: GA0087 gastric NEC patient-derived xenograft; type: in vivo
MKL-1 hMCC xenograft = type: in vivo; details: 5 mg/kg PO 5 on/2 off
MS-1 hMCC xenograft = type: in vivo; details: 5 mg/kg PO 5 on/2 off
[6] = Hemodynamic and ECG parameters in anesthetized guinea pigs; type: in vivo, Dunkin Hartley guinea pigs; details: for concentration at 10 min: male, Dunkin Hartley, plasma, read-out: mean plasma concentration at end of infusion
From the text: Animals were monitored throughout the experiment.

[7] = 4-week oral gavage pivotal toxicity study with 4-week recovery in dogs (incl. ECG, TK); type: in vivo, Beagle dogs; details: for AUC(0-t): Beagle, po, AUC0-168
Protocol: The QTc interval was calculated using the Fridericia method.

P-gp (MDR1) = P-gp (MDR1) (Homo sapiens (Human), UniProt P08183); experiment: Permeability in MDR1-MDCK cells; type: in vitro ADME
[8] = Metabolism in cryopreserved primary hepatocytes; type: in vitro ADME; details: male mouse, rat, dog, monkey; mixed gender human
CYP3A4 = CYP3A4 (Homo sapiens (Human), UniProt P08684); experiment: CYP reaction phenotyping with recombinant human CYP enzymes; type: in vitro ADME
From the text: The role of non-CYP enzymes in the metabolism of Compound A is yet to be ascertained.

CYP2C9 = CYP2C9 (Homo sapiens (Human), UniProt P11712); experiment: CYP inhibition in pooled human liver microsomes, CYP2C9; type: in vitro ADME; details: up to 50 μM
CYP2C19 = CYP2C19 (Homo sapiens (Human), UniProt P33261); experiment: CYP inhibition in pooled human liver microsomes, CYP2C19; type: in vitro ADME
CYP2D6 = CYP2D6 (Homo sapiens (Human), UniProt P10635); experiment: CYP inhibition in pooled human liver microsomes, CYP2D6; type: in vitro ADME; details: up to 50 μM
CYP3A4 mRNA = experiment: CYP induction in cryopreserved human hepatocytes, CYP3A4; type: in vitro ADME; details: 0.03 to 10 μM, up to 3 days
[9] = Predicted human pharmacokinetics (allometric scaling)
[10] = tested on: Salmonella typhimurium TA98 and TA100 strains; experiment: Bacterial reverse mutation assay; details: up to 500 μg/mL, presence and absence of S9
[11] = Exploratory toxicity study in dogs; type: in vivo, Beagle dogs
[12] = tested on: LXFS 573 SCLC patient-derived xenograft
hERG potassium channel = hERG potassium channel (Homo sapiens (Human), UniProt Q12809)
[13] = Beagle, dog, in vivo, po
in vivo = details: Crl:CD1(ICR), mouse, plasma, po, 15 mg/kg
[14] = 4-week toxicity study (no recovery period) in dogs (incl. TK)
[15] = Compound A 5 mg/kg/day PO days 1-133

Chain of P-gp (MDR1) (P08183 whole entry): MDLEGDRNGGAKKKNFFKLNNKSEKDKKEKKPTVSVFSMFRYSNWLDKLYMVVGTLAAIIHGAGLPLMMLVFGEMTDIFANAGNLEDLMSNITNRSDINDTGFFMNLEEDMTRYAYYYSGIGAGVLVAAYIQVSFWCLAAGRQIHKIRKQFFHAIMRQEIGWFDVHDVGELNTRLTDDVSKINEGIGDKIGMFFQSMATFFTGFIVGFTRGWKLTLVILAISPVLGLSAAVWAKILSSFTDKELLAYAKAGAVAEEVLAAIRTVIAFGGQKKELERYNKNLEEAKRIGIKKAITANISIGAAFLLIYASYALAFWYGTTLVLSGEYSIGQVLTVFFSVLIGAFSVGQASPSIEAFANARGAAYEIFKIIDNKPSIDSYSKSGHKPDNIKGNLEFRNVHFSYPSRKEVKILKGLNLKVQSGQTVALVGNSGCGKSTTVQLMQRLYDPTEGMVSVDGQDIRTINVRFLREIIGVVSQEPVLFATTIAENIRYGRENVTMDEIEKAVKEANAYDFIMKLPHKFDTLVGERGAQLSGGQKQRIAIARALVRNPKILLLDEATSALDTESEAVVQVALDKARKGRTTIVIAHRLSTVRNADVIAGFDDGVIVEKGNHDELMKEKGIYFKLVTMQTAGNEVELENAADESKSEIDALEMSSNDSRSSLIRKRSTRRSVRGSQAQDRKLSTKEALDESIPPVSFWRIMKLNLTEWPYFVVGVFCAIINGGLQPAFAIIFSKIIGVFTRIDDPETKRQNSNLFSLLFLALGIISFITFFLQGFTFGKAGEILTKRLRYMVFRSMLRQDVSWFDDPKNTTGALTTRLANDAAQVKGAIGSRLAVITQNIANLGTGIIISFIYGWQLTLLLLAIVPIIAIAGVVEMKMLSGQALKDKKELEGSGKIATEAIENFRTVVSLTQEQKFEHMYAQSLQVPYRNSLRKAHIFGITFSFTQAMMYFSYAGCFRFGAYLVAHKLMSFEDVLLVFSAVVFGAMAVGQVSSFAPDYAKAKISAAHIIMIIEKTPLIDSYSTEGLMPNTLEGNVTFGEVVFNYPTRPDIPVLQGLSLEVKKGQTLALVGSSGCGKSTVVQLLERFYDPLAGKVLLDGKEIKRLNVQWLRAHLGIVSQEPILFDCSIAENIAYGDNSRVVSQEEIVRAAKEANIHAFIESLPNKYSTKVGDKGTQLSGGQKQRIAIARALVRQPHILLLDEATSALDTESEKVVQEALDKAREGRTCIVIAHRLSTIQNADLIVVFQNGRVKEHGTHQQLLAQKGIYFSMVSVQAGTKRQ
Chain of CYP2C19 (P33261 whole entry): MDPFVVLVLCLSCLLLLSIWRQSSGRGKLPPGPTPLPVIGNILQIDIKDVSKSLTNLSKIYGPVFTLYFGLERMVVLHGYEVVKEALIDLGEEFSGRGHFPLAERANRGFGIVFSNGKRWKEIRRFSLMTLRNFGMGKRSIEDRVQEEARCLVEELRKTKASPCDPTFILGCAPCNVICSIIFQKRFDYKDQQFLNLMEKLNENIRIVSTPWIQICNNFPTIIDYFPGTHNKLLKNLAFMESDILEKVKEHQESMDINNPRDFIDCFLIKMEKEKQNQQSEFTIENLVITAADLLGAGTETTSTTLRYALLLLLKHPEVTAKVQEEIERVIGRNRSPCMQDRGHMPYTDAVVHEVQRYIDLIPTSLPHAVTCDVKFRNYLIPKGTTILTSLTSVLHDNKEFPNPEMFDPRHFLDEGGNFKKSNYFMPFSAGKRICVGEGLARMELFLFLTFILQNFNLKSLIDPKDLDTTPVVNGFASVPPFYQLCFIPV
Chain of CYP3A4 (P08684 whole entry): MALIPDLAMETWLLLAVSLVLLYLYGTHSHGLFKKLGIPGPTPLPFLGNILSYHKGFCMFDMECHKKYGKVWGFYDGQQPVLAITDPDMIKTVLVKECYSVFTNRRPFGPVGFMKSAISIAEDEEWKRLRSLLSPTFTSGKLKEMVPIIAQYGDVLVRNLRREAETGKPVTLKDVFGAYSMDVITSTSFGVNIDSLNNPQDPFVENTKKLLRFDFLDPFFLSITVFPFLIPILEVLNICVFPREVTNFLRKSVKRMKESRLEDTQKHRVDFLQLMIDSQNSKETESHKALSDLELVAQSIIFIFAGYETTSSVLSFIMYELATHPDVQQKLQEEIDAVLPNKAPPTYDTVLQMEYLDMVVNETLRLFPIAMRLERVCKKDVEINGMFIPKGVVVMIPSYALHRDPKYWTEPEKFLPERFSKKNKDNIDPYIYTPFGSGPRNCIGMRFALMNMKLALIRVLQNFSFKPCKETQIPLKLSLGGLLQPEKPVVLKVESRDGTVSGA
Chain of CYP2D6 (P10635 whole entry): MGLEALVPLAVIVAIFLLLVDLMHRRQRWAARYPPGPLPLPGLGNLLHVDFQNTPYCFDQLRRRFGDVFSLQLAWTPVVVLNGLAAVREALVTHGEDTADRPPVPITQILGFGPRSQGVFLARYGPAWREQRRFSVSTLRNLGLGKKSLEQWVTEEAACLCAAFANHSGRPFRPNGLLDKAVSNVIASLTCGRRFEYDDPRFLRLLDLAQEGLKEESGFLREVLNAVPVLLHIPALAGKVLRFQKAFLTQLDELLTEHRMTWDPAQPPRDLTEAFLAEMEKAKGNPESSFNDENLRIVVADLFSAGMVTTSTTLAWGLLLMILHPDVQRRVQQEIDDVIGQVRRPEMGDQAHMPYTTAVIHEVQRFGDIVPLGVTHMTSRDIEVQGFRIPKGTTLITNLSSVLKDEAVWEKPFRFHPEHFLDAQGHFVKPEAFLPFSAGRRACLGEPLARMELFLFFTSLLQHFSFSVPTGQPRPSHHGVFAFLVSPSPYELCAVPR
Chain of hERG potassium channel (Q12809 whole entry): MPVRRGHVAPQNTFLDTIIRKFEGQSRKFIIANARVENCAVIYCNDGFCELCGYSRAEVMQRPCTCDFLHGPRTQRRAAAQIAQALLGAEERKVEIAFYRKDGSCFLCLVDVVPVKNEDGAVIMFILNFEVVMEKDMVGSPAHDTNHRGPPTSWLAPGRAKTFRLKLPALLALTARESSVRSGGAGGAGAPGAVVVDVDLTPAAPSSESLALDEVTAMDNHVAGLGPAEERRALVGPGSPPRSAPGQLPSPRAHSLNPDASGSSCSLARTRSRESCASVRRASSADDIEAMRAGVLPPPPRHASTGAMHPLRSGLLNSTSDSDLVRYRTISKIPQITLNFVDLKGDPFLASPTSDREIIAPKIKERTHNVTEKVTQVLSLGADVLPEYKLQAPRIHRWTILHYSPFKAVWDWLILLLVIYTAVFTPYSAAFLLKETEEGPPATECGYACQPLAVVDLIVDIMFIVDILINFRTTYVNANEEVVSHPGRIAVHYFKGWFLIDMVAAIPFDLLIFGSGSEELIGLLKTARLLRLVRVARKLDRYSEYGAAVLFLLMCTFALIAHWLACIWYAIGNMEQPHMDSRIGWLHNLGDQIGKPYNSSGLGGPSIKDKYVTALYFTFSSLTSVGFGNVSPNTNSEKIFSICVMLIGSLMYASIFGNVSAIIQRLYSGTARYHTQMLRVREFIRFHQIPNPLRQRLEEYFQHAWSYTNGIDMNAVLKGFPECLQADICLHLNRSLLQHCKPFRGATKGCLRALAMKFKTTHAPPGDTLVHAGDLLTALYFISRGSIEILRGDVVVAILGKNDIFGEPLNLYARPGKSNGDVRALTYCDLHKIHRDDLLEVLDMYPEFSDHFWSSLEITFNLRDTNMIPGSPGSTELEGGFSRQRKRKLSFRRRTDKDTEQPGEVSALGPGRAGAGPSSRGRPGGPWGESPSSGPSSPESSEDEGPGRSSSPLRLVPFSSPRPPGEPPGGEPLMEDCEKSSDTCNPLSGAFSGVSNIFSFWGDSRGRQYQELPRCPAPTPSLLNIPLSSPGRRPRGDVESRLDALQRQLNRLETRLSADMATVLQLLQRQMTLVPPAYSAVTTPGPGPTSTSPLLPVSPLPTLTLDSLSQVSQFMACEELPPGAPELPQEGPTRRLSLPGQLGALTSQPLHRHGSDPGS
Chain of CYP2C9 (P11712 whole entry): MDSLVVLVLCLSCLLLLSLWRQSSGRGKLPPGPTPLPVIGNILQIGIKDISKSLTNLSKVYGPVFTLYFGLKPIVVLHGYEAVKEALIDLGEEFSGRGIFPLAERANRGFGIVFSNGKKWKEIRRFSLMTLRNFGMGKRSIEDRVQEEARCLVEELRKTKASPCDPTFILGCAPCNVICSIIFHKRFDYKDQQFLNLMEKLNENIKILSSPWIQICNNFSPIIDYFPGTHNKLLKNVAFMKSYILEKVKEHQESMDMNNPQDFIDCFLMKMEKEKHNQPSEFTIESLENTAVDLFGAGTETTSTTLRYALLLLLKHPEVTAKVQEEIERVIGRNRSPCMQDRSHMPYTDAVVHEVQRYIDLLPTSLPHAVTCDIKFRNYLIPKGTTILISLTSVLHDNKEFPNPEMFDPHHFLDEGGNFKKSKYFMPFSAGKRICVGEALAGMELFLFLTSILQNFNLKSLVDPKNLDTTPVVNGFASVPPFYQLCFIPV

With `COc1ccc(-c2c(-c3ccc(C#N)c(F)c3)nc(N3CCC(N)CC3)n(C)c2=O)cc1F` [Compound A, 4-[2-(4-amino-piperidin-1-yl)-5-(3-fluoro-4-methoxy-phenyl)-1-methyl-6-oxo-1,6-dihydro-pyrimidin-4-yl]-2-fluoro-benzonitrile] the “Median Tumor Volume Day 28” value ([1]; 5 mg base/kg PO QDx28) was 1244.8 mm^3, the “Median Tumor Volume Diff. (Day 28 - Day 1)” value ([1]; 5 mg base/kg PO QDx28) was 1071.6 mm^3 and the “Median Tumor Volume Day 28” value ([1]; 10 mg base/kg PO QDx28) was 906.0 mm^3. The “Median Tumor Volume Diff. (Day 28 - Day 1)” value ([1]; 10 mg base/kg PO QDx28) was 732.3 mm^3, the “mean body weight loss” value ([1]; both LU2514 studies) was under 10% and the AUC(0-t) (LXFS 1129 SCLC PDX model; 1.5 mg base/kg) was 243 ng·h/mL. The AUC(0-t) (LXFS 1129 SCLC PDX model; 5 mg base/kg) was 1260 ng·h/mL, the “mean body weight loss” value [2] was under 6% and the TGI [3] was −7%. The “Median Tumor Volume Day 46” value ([4]; 5 mg/kg PO QD x 46) was 329.7 mm^3, the “Median Tumor Volume Diff (Day 46 - Day 0)” value ([4]; 5 mg/kg PO QD x 46) was 177.9 mm^3 and the “% TGI” value ([4]; 5 mg/kg PO QD x 46, Day 46) was 84%. The TGI ([4]; 5 mg/kg oral QD for 46 days) was 84%, the tolerability ([4]; 1.5 and 5 mg/kg oral QD) was “acceptably tolerated” and the “Median Tumor Volume Day 53” value ([5]; 5 mg/kg PO QD x 53) was 673.2 mm^3. For the same compound, the “Median Tumor Volume Diff (Day 53 - Day 0)” value ([5]; 5 mg/kg PO QD x 53) was 863.3 mm^3, the tolerability ([5]; 1.5 and 5 mg/kg oral QD) was “acceptably tolerated” and the “Median Tumor Volume Day 15” value (MKL-1 hMCC xenograft) was 880 mm^3. The “Median Tumor Volume Diff (Day 15 - Day -3)” value (MKL-1 hMCC xenograft) was 815 mm^3, the “Median Tumor Volume Day 36” value (MS-1 hMCC xenograft) was 129 mm^3 and the “Median Tumor Volume Diff (Day 36 - Day -3)” value (MS-1 hMCC xenograft) was 80 mm^3. The “maximum increase of QTcB interval vs vehicle” value ([6]; 10 mg base/kg IV) was “approximately 9%”, the “maximum increase of QTcB interval vs vehicle” value ([6]; 15 mg base/kg IV) was about 13% and the “maximum increase of QTcB interval vs vehicle” value ([6]; 20 mg base/kg IV) was about 16%. The “maximum suppression of HR vs vehicle” value ([6]; 20 mg base/kg IV, 9 minutes into infusion) was 19%, the “NOAEL for hemodynamic and ECG endpoints” value ([6]; IV) was 10 mg base/kg and the “HR decrease at end of monitoring period” value ([6]; after 20 mg base/kg IV) was 18%. For the same compound, the “QTcB interval increase at end of monitoring period” value ([6]; guinea pig, in vivo) was 10%, the concentration at 10 min ([6]; guinea pig, 5 mg base/kg IV) was 1170 ng/mL and the concentration at 10 min ([6]; guinea pig, 10 mg base/kg IV) was 2360 ng/mL. The concentration at 10 min ([6]; guinea pig, 15 mg base/kg IV) was 4270 ng/mL, the concentration at 10 min ([6]; guinea pig, 20 mg base/kg IV) was 6710 ng/mL and the “NOEL for CV and respiratory changes” value ([7]; BIW oral) was 0.375 mg base/kg/dose. For the same compound, the “HNSTD and NOAEL” value ([7]; QW or BIW dose schedule) was under 0.375 mg base/kg/dose, the “NOEL for CV and respiratory changes” value ([7]; QW oral) was 0.75 mg base/kg/dose and the reversibility of findings ([7]; dog, in vivo) was “complete recovery”. It also gave an AUC(0-t) ([7]; female, dog, in vivo) of 435 ng·h/mL, an AUC(0-t) ([7]; male, dog, in vivo) of 503 ng·h/mL and a moribund euthanasia ([7]; weekly oral 0.375 to 1.5 mg base/kg, Days 13 to 23) of 11 animals. For the same compound, the primary toxicities ([7]; ≥0.375 mg base/kg/dose, QW or BIW) was “mucosal ulceration, acute and/or subacute inflammation, and mucosal epithelial atrophy of GI tract tissues”, the Papp A→B (P-gp (MDR1)) was 0.5 ×10⁻⁶ cm/s and the Papp B→A (P-gp (MDR1)) was 16.5 ×10⁻⁶ cm/s. For the same compound, the “metabolic stability in hepatocytes” value [8] was “greater in rat and dog followed by human and monkeys while being least stable in mouse hepatocytes”, the “role of CYP3A4 in metabolism” value (CYP3A4) was “predominantly responsible for the oxidative metabolism” and the “direct inhibition of CYP2C9” value (CYP2C9) was “little to no direct inhibitory effect”. The IC50 (CYP2C19) was over 50 µM, the “direct inhibition of CYP2D6” value (CYP2D6) was “little to no direct inhibitory effect” and the “increase in CYP3A4 mRNA over vehicle control” value (CYP3A4 mRNA) was under 2 fold. For the same compound, the “predicted steady state systemic exposure (AUCt)” value ([9]; 1.25 mg oral QW, 60-kg human, 80% oral bioavailability assumed) was 29 ng·h/mL, the predicted clearance ([9]; allometric scaling) was 9.4 mL/min/kg and the “predicted volume of distribution” value ([9]; allometric scaling) was 17.6 L/kg. The mutagenicity [10] was “negative for mutagenicity”, the platelet counts ([11]; 0.25 mg/kg/dose) was “no reduction in platelet counts” and the “Compound A-related effects” value ([11]; 0.25 mg/kg/dose QOD) was “no Compound A-related effects”. The platelet counts ([11]; 0.5 mg/kg/dose (both schedules) and 1 mg/kg/dose, most dogs) was “below 25,000 /μL”, the body weight loss ([11]; one female, 0.5 mg/kg/day 5 days on/2 days off, sacrificed moribund Day 12) was 10.8% and the “% TGD” value [12, 15] was 217%. The “T − C” value [12, 15] was 91 days, the “median TTE” value [12, 15] was 133 days and the “median TTE” value ([12]; Compound A monotherapy 5 mg/kg PO daily) was 133 days. The study survivors ([12]; Compound A monotherapy 5 mg/kg, Day 133, n=8) was “seven”, the “MTV of study survivors” value ([12]; mouse, in vivo) was 1064 mm3 and the “MTV, median tumor volume of study survivors” value ([12]; mouse, in vivo) was “(1064) mm^3”. For the same compound, the “SS, number of study survivors” value ([12]; mouse, in vivo) was 7, the Hill coefficient (hERG potassium channel) was 1.2 and the AUC0-96 ([13]; female) was 127 ng·h/mL. For the same compound, the Cmax ([13]; female) was 5.77 ng/mL, the AUC0-96 ([13]; female, 0.25 mg/kg) was 272 ng·h/mL and the Cmax ([13]; female, 0.25 mg/kg) was 11.5 ng/mL. For the same compound, the AUC0-96 ([13]; female, 0.5 mg/kg) was 618 ng·h/mL, the AUC0-96 ([13]; male) was 114 ng·h/mL and the Cmax ([13]; male) was 5.81 ng/mL. It also gave an AUC0-96 ([13]; male, 0.25 mg/kg) of 302 ng·h/mL, a Cmax ([13]; male, 0.25 mg/kg) of 10.5 ng/mL and an AUC0-96 ([13]; male, 0.5 mg/kg) of 653 ng·h/mL. The AUC(0-t) (in vivo; female) was 9680 ng·h/mL, the Cmax (in vivo; female) was 850 ng/mL and the AUC(0-t) (in vivo; male) was 7960 ng·h/mL. It also gave a Cmax (in vivo; male) of 628 ng/mL, an HNSTD ([14]; Q2W administration) of 0.5 mg base/kg/dose and an NOAEL ([14]; Q2W administration) of under 0.5 mg base/kg/dose. It also gave an NOAEL ([14]; QW administration) of 0.125 mg base/kg/dose and an HNSTD ([14]; QW dosing) of 0.25 mg base/kg/dose.
